# Paper PMC12752606, “METTL10‐Mediated PIAS3 Methylation Links Purine Metabolism to Gastric Cancer Progression” (Advanced Science, 2025)
# How the values were obtained:
# METTL10 = system: T1, METTL10; experiment: MTase-Glo screening assay, METTL10 with Histone H4 peptide substrate; format: biochemical; conditions: 10 µM
# T1 construct: purchased ICE Bioscience Inc
# Description: To identify METTL10 inhibitors, an in‐silico screening was first conducted on an in‐house compound library comprising approximately 6000 structurally diverse molecules. Molecular docking simulations with the METTL10 protein identified 111 candidate compounds for further analysis. The methyltransferase activity of these candidates was assessed using the MTase‐Glo Methyltransferase Assay (Promega, V7601) according to the manufacturer's protocol. Briefly, the candidate compounds were preincubated with His‐METTL10 protein (1 µg) at 37 °C for 1 h in a methylation reaction buffer (50 mM Tris‐HCl (pH 8.0), 20 mM KCl, 5 mM DTT, 4 mM EDTA, and 20 µM SAM), followed by the addition of either the Histone H4 or PIAS3 peptide substrate for an additional 1 h. The reaction was then subjected to MTase‐Glo reagent buffer for 30 min, followed by MTase‐Glo detection buffer for another 30 min. Luminescence was measured using a luminometer (Promega), and IC50 values were calculated using GraphPad Prism 8 software.
# EZH1 = EZH1 (Homo sapiens, UniProt Q92800); experiment: Off-target methyltransferase profiling (MTase-Glo); format: biochemical
# EZH1, sequence (Q92800 whole entry, species assumed): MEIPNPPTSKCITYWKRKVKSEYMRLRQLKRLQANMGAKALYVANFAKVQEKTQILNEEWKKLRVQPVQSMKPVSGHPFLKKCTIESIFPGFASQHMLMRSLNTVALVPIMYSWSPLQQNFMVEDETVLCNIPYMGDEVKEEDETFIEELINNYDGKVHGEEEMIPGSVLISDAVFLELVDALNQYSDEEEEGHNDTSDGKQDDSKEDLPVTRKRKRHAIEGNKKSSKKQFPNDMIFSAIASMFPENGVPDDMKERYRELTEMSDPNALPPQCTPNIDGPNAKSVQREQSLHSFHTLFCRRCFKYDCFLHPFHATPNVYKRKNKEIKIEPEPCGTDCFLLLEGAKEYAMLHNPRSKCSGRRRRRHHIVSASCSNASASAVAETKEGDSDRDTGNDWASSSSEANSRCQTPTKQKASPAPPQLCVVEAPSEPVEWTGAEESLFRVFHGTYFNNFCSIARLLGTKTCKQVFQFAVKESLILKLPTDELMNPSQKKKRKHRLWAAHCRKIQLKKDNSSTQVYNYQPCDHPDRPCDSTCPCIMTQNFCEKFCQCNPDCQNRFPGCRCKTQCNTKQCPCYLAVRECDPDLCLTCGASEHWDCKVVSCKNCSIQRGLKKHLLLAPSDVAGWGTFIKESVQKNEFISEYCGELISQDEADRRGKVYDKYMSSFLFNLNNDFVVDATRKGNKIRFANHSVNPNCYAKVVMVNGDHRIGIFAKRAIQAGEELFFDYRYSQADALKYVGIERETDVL
# EZH1, sequence (O75530 whole entry partner, species assumed): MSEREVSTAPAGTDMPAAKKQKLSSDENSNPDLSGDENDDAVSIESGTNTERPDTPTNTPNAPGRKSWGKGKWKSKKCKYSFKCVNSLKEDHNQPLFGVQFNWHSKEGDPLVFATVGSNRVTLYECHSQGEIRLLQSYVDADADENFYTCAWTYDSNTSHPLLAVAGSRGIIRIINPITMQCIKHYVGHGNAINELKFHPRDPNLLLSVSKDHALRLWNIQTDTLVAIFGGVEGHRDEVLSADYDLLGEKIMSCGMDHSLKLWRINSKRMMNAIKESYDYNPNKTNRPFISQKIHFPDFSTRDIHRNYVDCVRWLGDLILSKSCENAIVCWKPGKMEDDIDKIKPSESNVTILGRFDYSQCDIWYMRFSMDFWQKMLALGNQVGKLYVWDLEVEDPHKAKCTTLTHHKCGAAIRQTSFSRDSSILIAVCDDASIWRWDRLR
# EZH1, sequence (Q15022 whole entry partner, species assumed): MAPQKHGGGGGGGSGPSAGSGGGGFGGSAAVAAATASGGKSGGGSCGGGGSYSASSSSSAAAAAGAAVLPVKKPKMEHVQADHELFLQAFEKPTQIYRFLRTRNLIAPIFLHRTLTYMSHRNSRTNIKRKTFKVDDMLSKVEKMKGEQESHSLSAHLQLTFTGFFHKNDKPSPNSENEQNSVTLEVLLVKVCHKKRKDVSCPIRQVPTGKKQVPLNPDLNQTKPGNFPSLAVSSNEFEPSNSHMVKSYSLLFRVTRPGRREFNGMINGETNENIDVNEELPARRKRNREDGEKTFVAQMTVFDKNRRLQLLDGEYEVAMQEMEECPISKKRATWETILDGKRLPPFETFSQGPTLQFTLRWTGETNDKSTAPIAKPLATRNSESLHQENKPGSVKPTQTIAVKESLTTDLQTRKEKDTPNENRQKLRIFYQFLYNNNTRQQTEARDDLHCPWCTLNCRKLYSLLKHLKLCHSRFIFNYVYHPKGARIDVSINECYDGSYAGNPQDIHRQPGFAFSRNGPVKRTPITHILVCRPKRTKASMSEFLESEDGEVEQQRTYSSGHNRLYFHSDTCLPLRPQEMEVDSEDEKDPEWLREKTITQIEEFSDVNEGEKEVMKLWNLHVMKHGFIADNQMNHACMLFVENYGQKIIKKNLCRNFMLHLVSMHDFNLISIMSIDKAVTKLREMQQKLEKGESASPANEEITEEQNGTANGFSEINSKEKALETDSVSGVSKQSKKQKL
# EZH1, sequence (Q09028 whole entry partner, species assumed): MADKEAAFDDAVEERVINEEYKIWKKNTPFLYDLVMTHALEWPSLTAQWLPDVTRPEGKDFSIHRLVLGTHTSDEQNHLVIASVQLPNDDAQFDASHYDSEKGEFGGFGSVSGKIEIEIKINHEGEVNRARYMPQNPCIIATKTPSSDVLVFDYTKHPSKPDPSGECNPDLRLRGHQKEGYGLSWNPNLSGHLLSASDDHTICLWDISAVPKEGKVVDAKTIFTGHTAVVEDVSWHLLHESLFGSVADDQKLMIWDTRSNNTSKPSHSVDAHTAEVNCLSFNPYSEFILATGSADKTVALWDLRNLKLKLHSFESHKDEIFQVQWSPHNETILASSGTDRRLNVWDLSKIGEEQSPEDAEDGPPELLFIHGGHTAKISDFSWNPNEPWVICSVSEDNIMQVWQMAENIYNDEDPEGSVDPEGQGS
# Description: (§1) To evaluate the off‐target effects of LZQ‐02‐023‐01 on methyltransferase activity, a panel of enzymes was assessed using the MTase‐Glo Methyltransferase Assay (Promega), following the manufacturer's instructions. The assay was performed by ICE Bioscience Inc. Briefly, LZQ‐02‐023‐01 was serially diluted 4‐fold in DMSO to generate a 10‐point concentration gradient, and the resulting solutions were dispensed into 384‐well white assay plates using an Echo acoustic liquid handler (Labcyte). Plates were centrifuged at 1000 rpm for 1 min to ensure even compound distribution. Following a 10‐min preincubation at 25 °C, 2 µL of a substrate solution containing S‐adenosylmethionine (SAM) and the specific methyltransferase substrate (Table S7, Supporting Information) was added to each well. After a brief centrifugation, plates were incubated at 25 °C for 180 min to allow the enzymatic methylation reaction to proceed. Subsequently, 1 µL of MTase‐Glo reagent was added, followed by centrifugation and incubation at 25 °C for 45 min. Then, 5 µL of MTase‐Glo detection solution was introduced into each well, and the plates were incubated for an additional 45 min at 25 °C after centrifugation.
# (§2) Luminescence signals were directly proportional to methyltransferase activity, were recorded using a microplate reader (BMG LABTECH). Percent inhibition was calculated by normalizing luminescence intensities of compound‐treated wells to DMSO‐treated controls, and IC50 values were calculated using GraphPad Prism 8 software.
# EZH2 [A738T] = EZH2 [A738T] (Homo sapiens, UniProt Q15910, A733T); experiment: Off-target methyltransferase profiling (MTase-Glo); format: biochemical
# EZH2 [A738T], sequence (Q15910 1-751 isoform Q15910-2 A738T): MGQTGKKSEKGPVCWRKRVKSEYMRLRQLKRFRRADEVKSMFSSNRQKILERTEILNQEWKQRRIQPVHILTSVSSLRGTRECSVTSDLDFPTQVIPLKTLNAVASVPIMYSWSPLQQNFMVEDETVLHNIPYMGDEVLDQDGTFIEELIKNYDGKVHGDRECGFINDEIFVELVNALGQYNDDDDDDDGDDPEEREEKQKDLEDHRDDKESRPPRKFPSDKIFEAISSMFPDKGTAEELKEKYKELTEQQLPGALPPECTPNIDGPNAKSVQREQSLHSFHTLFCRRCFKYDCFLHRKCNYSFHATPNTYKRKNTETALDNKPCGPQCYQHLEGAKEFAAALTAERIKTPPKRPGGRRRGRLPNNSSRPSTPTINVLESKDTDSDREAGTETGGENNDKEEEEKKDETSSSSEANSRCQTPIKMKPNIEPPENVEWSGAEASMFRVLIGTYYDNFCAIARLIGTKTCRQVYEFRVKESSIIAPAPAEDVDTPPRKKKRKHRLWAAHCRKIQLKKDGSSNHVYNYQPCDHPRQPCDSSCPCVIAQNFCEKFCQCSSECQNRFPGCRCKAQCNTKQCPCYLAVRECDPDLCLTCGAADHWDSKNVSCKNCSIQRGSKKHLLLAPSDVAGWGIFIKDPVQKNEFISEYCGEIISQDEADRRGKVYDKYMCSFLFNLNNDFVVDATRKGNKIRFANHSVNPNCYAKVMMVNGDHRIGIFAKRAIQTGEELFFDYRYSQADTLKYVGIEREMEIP
# EZH2 [A738T], sequence (O75530 whole entry partner): as the sequence (O75530 whole entry partner, species assumed) above
# EZH2 [A738T], sequence (Q15022 whole entry partner): as the sequence (Q15022 whole entry partner, species assumed) above
# EZH2 [A738T], sequence (Q09028 whole entry partner): as the sequence (Q09028 whole entry partner, species assumed) above
# Description: as §1, §2
# EZH2 [Y641F] = EZH2 [Y641F] (Homo sapiens, UniProt Q15910, Y641F); experiment: Off-target methyltransferase profiling (MTase-Glo); format: biochemical
# EZH2 [Y641F], sequence (Q15910 whole entry Y641F): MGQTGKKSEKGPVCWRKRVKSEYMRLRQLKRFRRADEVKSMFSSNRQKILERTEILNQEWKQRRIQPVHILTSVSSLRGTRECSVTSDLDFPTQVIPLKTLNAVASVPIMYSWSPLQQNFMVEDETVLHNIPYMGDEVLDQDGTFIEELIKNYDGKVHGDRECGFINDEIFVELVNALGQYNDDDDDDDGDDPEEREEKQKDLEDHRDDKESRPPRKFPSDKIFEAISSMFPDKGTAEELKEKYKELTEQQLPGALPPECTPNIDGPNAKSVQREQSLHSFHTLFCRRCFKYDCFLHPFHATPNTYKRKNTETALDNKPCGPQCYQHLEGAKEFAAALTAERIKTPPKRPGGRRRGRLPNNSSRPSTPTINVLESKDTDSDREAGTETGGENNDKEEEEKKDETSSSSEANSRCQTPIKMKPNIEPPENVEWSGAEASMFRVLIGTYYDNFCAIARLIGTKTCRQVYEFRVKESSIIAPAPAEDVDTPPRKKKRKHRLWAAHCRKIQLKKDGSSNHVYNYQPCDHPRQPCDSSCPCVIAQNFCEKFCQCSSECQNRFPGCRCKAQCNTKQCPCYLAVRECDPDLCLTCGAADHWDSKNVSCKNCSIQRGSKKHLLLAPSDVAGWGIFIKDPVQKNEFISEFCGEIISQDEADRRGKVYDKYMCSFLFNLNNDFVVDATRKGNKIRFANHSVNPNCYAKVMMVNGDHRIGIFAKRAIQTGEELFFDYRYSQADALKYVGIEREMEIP
# EZH2 [Y641F], sequence (O75530 whole entry partner): as the sequence (O75530 whole entry partner, species assumed) above
# EZH2 [Y641F], sequence (Q15022 whole entry partner): as the sequence (Q15022 whole entry partner, species assumed) above
# EZH2 [Y641F], sequence (Q09028 whole entry partner): as the sequence (Q09028 whole entry partner, species assumed) above
# Description: as §1, §2
# [1] = target: other tested methyltransferases; experiment: Off-target methyltransferase profiling, panel as a whole; format: biochemical; conditions: all panel enzymes other than METTL10
# Description: as §1, with “Then, 5 µL of MTase‐Glo detection solution was introduced into each well, and the plates were incubated for an additional 45 min at 25 °C after centrifugation.” left out
# as §2
# ICR mice = experiment: Acute toxicity at 125 mg/kg, 7-day observation and histopathology; format: in vivo
# Description: For the acute toxic study, 8‐week‐old ICR mice (n = 6 per group) were administered a single intraperitoneal injection of LZQ‐02‐023‐01 at escalating doses. A vehicle‐treated group served as control. Survival was monitored continuously for 24 h postadministration. Additionally, another cohort of ICR mice (n = 5 per group) received a single intraperitoneal dose of LZQ‐02‐023‐01 at 125 mg/kg and were subsequently monitored daily for 7 days for clinical signs of toxicity, behavioral changes, body weight fluctuations, and mortality. At the conclusion of the observation period, animals were euthanized and subjected to a comprehensive gross necropsy. Major organs, including the liver, kidney, heart, lung, and spleen, were harvested for histopathological examination. For the chronic toxic study, 8‐week‐old ICR mice (n = 5 per group) received daily intraperitoneal injections of LZQ‐02‐023‐01 at a therapeutic dose of 40 mg/kg for 14 consecutive days. A vehicle‐treated group was included as a control. Throughout the treatment period, animals were monitored daily for clinical signs of toxicity and weighed every 2 days. At study termination, blood samples were collected for hematological and biochemical analyses. […]
# MKN45 xenografts = experiment: MKN45 subcutaneous xenograft model; format: in vivo, BALB/c nude mice; conditions: 20 or 40 mg/kg i.p. once daily for 2 weeks
# Description: (§3) For the subcutaneous tumor model, 5 × 10⁶ MKN45 cells suspended in 100 µL of sterile PBS were injected subcutaneously into the flanks of BALB/c nude mice. When tumor volumes reached approximately 50 mm^3, mice were randomized into three groups (Vehicle control, LZQ‐02‐023‐01 at 20 mg/kg or 40 mg/kg, n = 10 per group). All treatments were administered via intraperitoneal injection once daily for 14 consecutive days. Tumor volumes were measured every 2 days using calipers and calculated using the formula: volume = [length × (width[2])]/2. Mice were sacrificed on day 24 for endpoint analyses. For genetically engineered mouse models (GEMMs), 25‐week‐old K19‐C2mE mice were randomized into Vehicle control (n = 8) and LZQ‐02‐023‐01 treatment (40 mg/kg, n = 8) groups. Both groups received daily intraperitoneal injections for 28 consecutive days. Similarly, 8‐week‐old Cldn18‐AT mice were induced with tamoxifen (100 mg/kg, T5648, Sigma) and, 2 weeks post‐induction, randomized into Vehicle (n = 6) and LZQ‐02‐023‐01 (40 mg/kg, n = 6) treatment groups. Treatments were administered daily via intraperitoneal injection for 28 days.
# (§4) Paraffin sections were initially placed in an oven at 65 °C for 30 min to melt the paraffin. The slides were then immersed in two consecutive xylene baths for 10 min each to dewax the tissue, followed by hydration through a series of graded ethanol solutions. […]
# [2] = system: gastric tumors of K19-C2mE mice; experiment: K19-C2mE spontaneous gastric cancer mouse model; format: in vivo; conditions: 40 mg/kg/day i.p., 4 weeks
# Description: as §3, §4
compound,measurement,setting,value
"Cc1ccc(Nc2ncc3c(n2)N(C)C(=O)N(c2cccc(N)c2)C3)cn1 [LZQ-02-023-01, Three‐(3‐aminophenyl)‐1‐methyl‐7‐((6‐methylpyridin‐3‐yl)amino)‐3,4‐dihydropyrimido [4,5‐d] pyrimidin‐2 (1H)‐one]",Inhibition of METTL10 activity toward histone H4,METTL10,significantly inhibited
same,IC50,EZH1,28.9 µM
same,IC50,EZH2 [A738T],7.47 µM
same,IC50,EZH2 [Y641F],2.94 µM
same,IC50,[1],> 3 µM
same,Signs of overt toxicity,ICR mice; 7 days,did not observe any signs of overt toxicity
same,Histopathological analysis of major organs,ICR mice; end of 7-day period,no apparent tissue damage
same,Growth of xenografts derived from MKN45 cells,MKN45 xenografts,significant reduction
same,"Ki-67 expression, PIAS3-K442 methylation and MITF in xenografts",MKN45 xenografts,significantly decreased
same,"Pathologic grade of lesions and proliferation (H&E, Ki-67)",[2],lower pathologic grade lesions and proliferation
same,Tumor burden and progression,[2],significantly reduce tumor burden and progression
